Test results taken from patent US7001913B1, “Aminopiperidine derivatives as antibacterials” (SmithKline Beecham P.L.C., priority 1999, dated 2006).

Tested on: S. aureus Oxford, S. aureus WCUH29, S. pneumoniae 1629, S. pneumoniae N1387, S. pneumoniae ERY 2
Assay: MIC of test compounds against various organisms
Format: cell-based
Settings: against one or more of S. aureus Oxford
Protocol: The MIC (μg/ml) of test compounds against various organisms was determined: S. aureus Oxford, S. aureus WCUH29, S. pneumoniae 1629, S. pneumoniae N1387, S. pneumoniae ERY 2.

MIC: ≤ 1 µg/mL
Compound: CCCCCCCNC1CCN(C[C@H](O)c2ccnc3ccc(OC)cc23)CC1C(N)=O (mixture of isomers) [Example 4, cis-3-(R/S)-Aminocarbonyl-4-(S/R)-heptylamino-1-[2-(R)-hydroxy-2-(6-methoxyquinolin-4-yl)]ethylpiperidine dioxalate]
